Measurements: patent US20250127790A1, “COMBINATION THERAPY USING VPS34 INHIBITORS” (Deciphera Pharmaceuticals, LLC, priority 2021, published 2025)

Assays:
[1] = test system: Renca renal cell carcinoma cells; experiment: qRT-PCR, combination with ADU-S100, Renca cells; type: cell-based, Mouse; settings: for IFNB1 mRNA expression: 2 μM Compound 1, 10 μM ADU-S100, 4 h; for CCL5 mRNA expression / CXCL10 mRNA expression: 2 μM Compound 1, 10 μM ADU-S100, 24 h; for increase in IFNB1, CCL5 and CXCL10 with siRNA knockdown of STING: siSTING
Protocol: Renca cells were grown in RPMI-1640 medium containing 10% fetal bovine serum. Cells were then incubated for 2 days at 37 degrees Celsius, 5% CO2, and 95% humidity. Renca cells were reversely transfected with scrambled siRNA control (siSCR) or siRNA targeting STING (siSTING). After transfection for 48 h, cells were treated with DMSO control, 2 μM Compound 1 or 2 μM Compound 2 in combination with 10 μM ADU-S100 for 4 h (for Ifnb1) or 24 h (Ccl5 and Cxcl10). Cells were washed with PBS and RNA was isolated using the PureLink RNA kit (#12183018A, Thermo Fisher Scientific) according to the manufacturer's protocol. Genomic DNA was removed using DNA-binding columns (RNeasy plus kit, #74134, Qiagen) and/or DNase treatment (#12185010, Thermo Fisher Scientific). RNA was quantified using NanoDrop (Thermo Fisher Scientific) and 50 ng/μL RNA was used for cDNA synthesis with SuperScript IV VILO Master Mix (#11756050, Thermo Fisher Scientific). Quantitative RT-PCR (qRT-PCR) was run with diluted cDNA (1:25 or 1:12.5), PowerUp SYBR Green Master Mix (#A25741, Thermo Fisher Scientific), and 200 nM primers (see below) on a CFX Connect RT-PCR system (BioRad). Data was analyzed using the ΔΔCT method. Results are mean±SEM of three independent experiments.

[2] = test system: 786-O renal cell carcinoma cells; experiment: qRT-PCR with siRNA knockdown of STING pathway genes, 786-O cells; type: cell-based, Human; settings: 24 h, vs compound alone; for IFNB1, CCL5 and CXCL10 expression with siRNA knockdown of CGAS / IRF7 expression with siRNA knockdown of CGAS: siCGAS; for IFNB1, CCL5 and CXCL10 expression with siRNA knockdown of CGAS / IRF7 expression with siRNA knockdown of CGAS / IFNB1, CCL5 and CXCL10 expression with siRNA knockdown of STING / IRF7 expression with siRNA knockdown of STING: 2 μM; for IFNB1, CCL5 and CXCL10 expression with siRNA knockdown of STING / IRF7 expression with siRNA knockdown of STING: siSTING; for IFNB1 expression with siRNA knockdown of TBK1 / IRF7, CCL5 and CXCL10 expression with siRNA knockdown of TBK1: siTBK1, 2 μM
[3] = test system: A-498 renal cell carcinoma cells; experiment: Western blot, STING pathway proteins with siRNA knockdown, A-498 cells; type: cell-based; settings: 24 h; for CGAS level / STING level / p-IRF3 level / p-STAT1 level / p-TKB1 level / p-IRF3 and p-STAT1 levels with siRNA knockdown of CGAS / p-TKB1 level with siRNA knockdown of CGAS / p-IRF3 and p-STAT1 levels with siRNA knockdown of STING / p-TBK1 level with siRNA knockdown of STING: 2 μM; for CGAS level / STING level / p-IRF3 level / p-STAT1 level / p-TKB1 level: vs DMSO alone; for p-IRF3 and p-STAT1 levels with siRNA knockdown of CGAS / p-TKB1 level with siRNA knockdown of CGAS: siCGAS; for p-IRF3 and p-STAT1 levels with siRNA knockdown of CGAS / p-TKB1 level with siRNA knockdown of CGAS / p-IRF3 and p-STAT1 levels with siRNA knockdown of STING / p-TBK1 level with siRNA knockdown of STING: vs compound alone; for p-IRF3 and p-STAT1 levels with siRNA knockdown of STING / p-TBK1 level with siRNA knockdown of STING: siSTING; for STING level with siRNA knockdown of TBK1 / CGAS level with siRNA knockdown of TBK1: siTBK1, 2 μM; for CGAS level with siRNA knockdown of TBK1: vs DMSO
Protocol: A-498 cells were transfected with scrambled siRNA control (siSCR) or siRNA targeting TBK1 (siTBK1), STING (siSTING) or CGAS (siCGAS). After 48 h cells were treated with DMSO or 2 μM of VPS34 inhibitor (Compound 1 or Compound 2) for 24 h. A-498 cells were washed in PBS and lysed in RIPA buffer (50 mM Tris HCl pH=7.4, 150 mM NaCl, 1% Triton X-100, 0.5% Na-deoxycholate, 0.1% SDS) containing protease inhibitor cocktail (#11836170001, Roche), and phosphatase inhibitor (#11836170001, Roche) for 10 min at 4° C. After centrifugation at 15000 rpm for 10 min at 4° C., the supernatant was obtained, and protein concentration was quantified using BCA assay (#23225, Thermo Fisher). Equal amounts were mixed with 0.1 M DTT and LDS Sample Buffer (#84788, Thermo Fisher), heated for 5 min at 90° C. before loading onto 4-12% Bis-Tris gels. Proteins were transferred to nitrocellulose membranes. Membranes were blocked in 5% non-fat dry milk in TBS with 0.05% Tween (TBS-T) for 1 h at RT, washed in TBS-T, and probed with primary antibodies shaking overnight at 4° C. After washing in TBS-T, membranes were incubated with IRDye 800CW goat anti-rabbit or IRDye 680RD donkey anti-mouse IgG (H+L) (#926-32211 and #926-68072, respectively, LI-COR, 1:10,000 dilution) secondary antibody in Intercept blocking buffer (#927-60001, LI-COR) for 1 h at RT. After washing in TBS-T, membranes were imaged using the Odyssey CLx (LI-COR). Band intensities were quantified using Image Studio Lite software version 5.2.5 (LI-COR).

[4] = test system: CT26 colorectal cancer cells; experiment: qRT-PCR, combination with cGAMP, CT26 cells; type: cell-based, Mouse; settings: 24 hours, 5 μM Compound 1 or 10 μM Compound 2, 10 mg/mL cGAMP
Protocol: CT26 cells were treated for 24 hours with DMSO or VPS34 inhibitors (5 μM Compound 1 or 10 μM Compound 2) in combination with 10 mg/mL STING agonist cGAMP (green bars). Cells were washed with PBS and RNA was isolated using the PureLink RNA kit (#12183018A, Thermo Fisher Scientific) according to the manufacturer's protocol. Genomic DNA was removed using DNA-binding columns (RNeasy plus kit, #74134, Qiagen) and/or DNase treatment (#12185010, Thermo Fisher Scientific). RNA was quantified using NanoDrop (Thermo Fisher Scientific) and 50 ng/μL RNA was used for cDNA synthesis with SuperScript IV VILO Master Mix (#11756050, Thermo Fisher Scientific). Quantitative RT-PCR (qRT-PCR) was run with diluted cDNA (1:25 or 1:12.5), PowerUp SYBR Green Master Mix (#A25741, Thermo Fisher Scientific), and 200 nM primers (see below) on a CFX Connect RT-PCR system (BioRad). Data was analyzed using the ΔΔCT method. Results are mean±SEM of three independent experiments.

Row | SMILES | IFNB1 mRNA expression [1] | CCL5 mRNA expression [1] | CXCL10 mRNA expression [1] | increase in IFNB1, CCL5 and CXCL10 with siRNA knockdown of STING [1] | IFNB1, CCL5 and CXCL10 expression with siRNA knockdown of CGAS [2] | IRF7 expression with siRNA knockdown of CGAS [2] | IFNB1, CCL5 and CXCL10 expression with siRNA knockdown of STING [2] | IRF7 expression with siRNA knockdown of STING [2] | IFNB1 expression with siRNA knockdown of TBK1 [2] | IRF7, CCL5 and CXCL10 expression with siRNA knockdown of TBK1 [2] | CGAS level [3] | STING level [3] | p-IRF3 level [3] | p-STAT1 level [3] | p-TKB1 level [3] | p-IRF3 and p-STAT1 levels with siRNA knockdown of CGAS [3] | p-TKB1 level with siRNA knockdown of CGAS [3] | p-IRF3 and p-STAT1 levels with siRNA knockdown of STING [3] | p-TBK1 level with siRNA knockdown of STING [3] | STING level with siRNA knockdown of TBK1 [3] | further results
1 | Nc1ncnc2c1ncn2[C@@H]1O[C@@H]2COP(=O)([S-])O[C@@H]3[C@H](O)[C@@H](COP([O-])(=S)O[C@H]2[C@H]1O)O[C@H]3n1cnc2c(N)ncnc21.[Na+].[Na+] (stereo partly shown) [ADU-S100, reference compound] | increased | increased | increased | blocked | – | – | – | – | – | – | – | – | – | – | – | – | – | – | – | – | –
2 | C[C@@H]1COCCN1c1cc(=O)n2c(n1)N(Cc1cncc(Cl)c1)[C@H](C(F)(F)F)CC2 [Compound 2, (S)-9-((5-chloropyridin-3-yl)methyl)-2-((R)-3-methylmorpholino)-8-(trifluoromethyl)-6,7,8,9-tetrahydro-4H-pyrimido[1,2-a]pyrimidin-4-one] | – | – | – | – | complete ablation | significant decreases | complete ablation | significant decreases | near complete ablation | modest decreases | mild increase | increase | strong increases | strong increases | increase | complete loss | decrease | complete loss | decrease | increase | CGAS level with siRNA knockdown of TBK1 [3]: increase; CCL5 mRNA expression [4]: increased; CXCL10 mRNA expression [4]: increased
3 | C[C@@H]1COCCN1c1cc(N2CCCC[C@@H]2C(F)(F)F)[nH]c(=O)c1 [Compound 1, 4-((R)-3-methylmorpholino)-6-((R)-2-(trifluoromethyl)piperidin-1-yl)pyridin-2(1H)-one] | did not significantly increase | did increase | did increase | blocked | complete ablation | significant decreases | complete ablation | significant decreases | near complete ablation | modest decreases | mild increase | increase | strong increases | strong increases | increase | complete loss | decrease | complete loss | decrease | increase | CGAS level with siRNA knockdown of TBK1 [3]: increase; CCL5 mRNA expression [4]: increased; CXCL10 mRNA expression [4]: increased
